Experimental data published in PubChem BioAssay AID2060503 (Molecular Pharmacology Branch, DTP, NCI, 2025).

Test system: 817829-284-R-J1-PDC complex spheroids, viability
Test: Anticancer human tumor 817829-284-R-J1-PDC patient-derived colon adenocarcinoma cell line growth inhibition [GQUAD]
Conditions: for IC50: curve of first compound; for viability, T/C: stronger effect = lower value
Summary of the method: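 Tumor cells were grown as complex spheroids with HUVEC endothelial cells and mesenchymal stem cells as stroma. G-quadruplex stabilizers were combined with targeted agents over half-log dilutions from near the clinical Cmax, or from 10 microM.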

[1] = second compound 0.0316 µM, first compound 0.0316 µM
[2] = second compound 0.0316 µM, first compound 0.1 µM
[3] = second compound 0.0316 µM, first compound 0.316 µM
[4] = second compound 0.0316 µM, first compound 1 µM
[5] = second compound 0.0316 µM, first compound 3.16 µM
[6] = second compound 0.0316 µM, first compound 10 µM
[7] = second compound 0.1 µM, first compound 0.0316 µM
[8] = second compound 0.1 µM, first compound 0.1 µM
[9] = second compound 0.1 µM, first compound 0.316 µM
[10] = second compound 0.1 µM, first compound 1 µM
[11] = second compound 0.1 µM, first compound 3.16 µM
[12] = second compound 0.1 µM, first compound 10 µM
[13] = second compound 0.316 µM, first compound 0.0316 µM
[14] = second compound 0.316 µM, first compound 0.1 µM
[15] = second compound 0.316 µM, first compound 0.316 µM
[16] = second compound 0.316 µM, first compound 1 µM
[17] = second compound 0.316 µM, first compound 3.16 µM
[18] = second compound 0.316 µM, first compound 10 µM
[19] = second compound 1 µM, first compound 0.0316 µM
[20] = second compound 1 µM, first compound 0.1 µM
[21] = second compound 1 µM, first compound 0.316 µM
[22] = second compound 1 µM, first compound 1 µM
[23] = second compound 1 µM, first compound 3.16 µM
[24] = second compound 1 µM, first compound 10 µM
[25] = second compound 3.16 µM, first compound 0.0316 µM
[26] = second compound 3.16 µM, first compound 0.1 µM
[27] = second compound 3.16 µM, first compound 0.316 µM
[28] = second compound 3.16 µM, first compound 1 µM
[29] = second compound 3.16 µM, first compound 3.16 µM
[30] = second compound 3.16 µM, first compound 10 µM
[31] = second compound 10 µM, first compound 0.0316 µM
[32] = second compound 10 µM, first compound 0.1 µM
[33] = second compound 10 µM, first compound 0.316 µM
[34] = second compound 10 µM, first compound 1 µM
[35] = second compound 10 µM, first compound 3.16 µM
[36] = second compound 10 µM, first compound 10 µM
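Further: spheroids exposed to agents for 7 days before readout.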
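Wherever viability, T/C is given: percent viability relative to DMSO vehicle control taken as 100%.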

Compound C=CCn1c(=O)c2cnc(Nc3ccc(N4CCN(C)CC4)cc3)nc2n1-c1cccc(C(C)(C)O)n1 + Cc1cnc(CNC(=O)c2c(=O)c3ccc(N4CCCN(C)CC4)nc3n3c2sc2ccccc23)cn1 has an IC50 (second compound 0.0316 µM) of 52.9 nM, an IC50 (second compound 0.1 µM) of less than 31.6 nM and an IC50 (second compound 0.316 µM) of less than 31.6 nM. It also gave an IC50 (second compound 1 µM) of less than 31.6 nM, an IC50 (second compound 3.16 µM) of less than 31.6 nM and an IC50 (second compound 10 µM) of less than 31.6 nM. For the same compound, the viability, T/C [1] was 61.2%, the viability, T/C [2] was 35.9% and the viability, T/C [3] was 17.1%. It also gave a viability, T/C [4] of 6.1%, a viability, T/C [5] of 4.9% and a viability, T/C [6] of 4.63%. The viability, T/C [7] was 25.2%, the viability, T/C [8] was 25.4% and the viability, T/C [9] was 13.4%. It also gave a viability, T/C [10] of 10.5%, a viability, T/C [11] of 7.47% and a viability, T/C [12] of 6.17%. The viability, T/C [13] was 20.3%, the viability, T/C [14] was 18.2% and the viability, T/C [15] was 15.1%. It also gave a viability, T/C [16] of 10.6%, a viability, T/C [17] of 8.59% and a viability, T/C [18] of 7.12%. The viability, T/C [19] was 16.9%, the viability, T/C [20] was 20.6% and the viability, T/C [21] was 13.9%. It also gave a viability, T/C [22] of 10.2%, a viability, T/C [23] of 7.61% and a viability, T/C [24] of 6.9%. It also gave a viability, T/C [25] of 18.4%, a viability, T/C [26] of 17% and a viability, T/C [27] of 14.1%. The viability, T/C [28] was 9.62%, the viability, T/C [29] was 6.71% and the viability, T/C [30] was 6.66%. It also gave a viability, T/C [31] of 0.11%, a viability, T/C [32] of 0.15% and a viability, T/C [33] of 0.15%. The viability, T/C [34] was 0.14%, the viability, T/C [35] was 0.17% and the viability, T/C [36] was 0.2%.
Compound CC(C)(O)C1CCC(Nc2ccc3ncc(-c4cccc(C(F)(F)F)c4)n3n2)CC1 (stereo unspecified) + Cc1cnc(CNC(=O)c2c(=O)c3ccc(N4CCCN(C)CC4)nc3n3c2sc2ccccc23)cn1 has an IC50 (second compound 0.0316 µM) of 527 nM, an IC50 (second compound 0.1 µM) of less than 31.6 nM and an IC50 (second compound 0.316 µM) of less than 31.6 nM. The IC50 (second compound 1 µM) was less than 31.6 nM, the IC50 (second compound 3.16 µM) was less than 31.6 nM and the IC50 (second compound 10 µM) was less than 31.6 nM. The viability, T/C [1] was 63.1%, the viability, T/C [2] was 53.3% and the viability, T/C [3] was 76.1%. For the same compound, the viability, T/C [4] was 32.3%, the viability, T/C [5] was 5.43% and the viability, T/C [6] was 13.3%. The viability, T/C [7] was 31.4%, the viability, T/C [8] was 36.8% and the viability, T/C [9] was 26%. For the same compound, the viability, T/C [10] was 20.4%, the viability, T/C [11] was 7.21% and the viability, T/C [12] was 8.8%. It also gave a viability, T/C [13] of 22.4%, a viability, T/C [14] of 25.3% and a viability, T/C [15] of 25.3%. For the same compound, the viability, T/C [16] was 16.4%, the viability, T/C [17] was 1.35% and the viability, T/C [18] was 3.38%. The viability, T/C [19] was 16.6%, the viability, T/C [20] was 21.5% and the viability, T/C [21] was 21%. For the same compound, the viability, T/C [22] was 15.8%, the viability, T/C [23] was 0.04% and the viability, T/C [24] was 0.05%. The viability, T/C [25] was 20.8%, the viability, T/C [26] was 18% and the viability, T/C [27] was 19.1%. The viability, T/C [28] was 9.34%, the viability, T/C [29] was 0.09% and the viability, T/C [30] was 0.09%. It also gave a viability, T/C [31] of 0.11%, a viability, T/C [32] of 0.13% and a viability, T/C [33] of 0.17%. The viability, T/C [34] was 0.12%, the viability, T/C [35] was 0.19% and the viability, T/C [36] was 0.18%.
Work on CCCS(=O)(=O)Nc1ccc(F)c(C(=O)c2c[nH]c3ncc(-c4ccc(Cl)cc4)cc23)c1F + Cc1cnc(CNC(=O)c2c(=O)c3ccc(N4CCCN(C)CC4)nc3n3c2sc2ccccc23)cn1 yielded an IC50 (second compound 0.0316 µM) of 44.8 nM, an IC50 (second compound 0.1 µM) of less than 31.6 nM and an IC50 (second compound 0.316 µM) of less than 31.6 nM. For the same compound, the IC50 (second compound 1 µM) was less than 31.6 nM, the IC50 (second compound 3.16 µM) was less than 31.6 nM and the IC50 (second compound 10 µM) was less than 31.6 nM. It also gave a viability, T/C [1] of 57.4%, a viability, T/C [2] of 33.9% and a viability, T/C [3] of 34.4%. The viability, T/C [4] was 28.3%, the viability, T/C [5] was 30.9% and the viability, T/C [6] was 11.8%. The viability, T/C [7] was 20.7%, the viability, T/C [8] was 21.9% and the viability, T/C [9] was 15.6%. The viability, T/C [10] was 14.8%, the viability, T/C [11] was 12.5% and the viability, T/C [12] was 10.2%. For the same compound, the viability, T/C [13] was 19.2%, the viability, T/C [14] was 20% and the viability, T/C [15] was 17.1%. It also gave a viability, T/C [16] of 16.7%, a viability, T/C [17] of 15.7% and a viability, T/C [18] of 10.7%. It also gave a viability, T/C [19] of 16.7%, a viability, T/C [20] of 19.7% and a viability, T/C [21] of 18.6%. For the same compound, the viability, T/C [22] was 14.5%, the viability, T/C [23] was 14.5% and the viability, T/C [24] was 6.86%. The viability, T/C [25] was 18%, the viability, T/C [26] was 17.4% and the viability, T/C [27] was 15.1%. For the same compound, the viability, T/C [28] was 12.9%, the viability, T/C [29] was 12.2% and the viability, T/C [30] was 2.83%. The viability, T/C [31] was 0.09%, the viability, T/C [32] was 0.13% and the viability, T/C [33] was 0.17%. The viability, T/C [34] was 0.16%, the viability, T/C [35] was 0.17% and the viability, T/C [36] was 0.17%.
